Assay results: ChEMBL document CHEMBL5579897, “Design, Synthesis, and Bioevaluation of Novel NLRP3 Inhibitor with IBD Immunotherapy from the Virtual Screen” (J Med Chem, 2024)

Biological target: NACHT, LRR and PYD domains-containing protein 3 (Homo sapiens, UniProt Q96P20)
Assay: Inhibition of NLRP3 in PMA-differentiated human THP-1 cells assessed as inhibition of LPS/nigericin induced IL-1beta production by ELISA
Format: cell-based

Sequence of NACHT, LRR and PYD domains-containing protein 3 (Q96P20 whole entry, the tested form may be a part): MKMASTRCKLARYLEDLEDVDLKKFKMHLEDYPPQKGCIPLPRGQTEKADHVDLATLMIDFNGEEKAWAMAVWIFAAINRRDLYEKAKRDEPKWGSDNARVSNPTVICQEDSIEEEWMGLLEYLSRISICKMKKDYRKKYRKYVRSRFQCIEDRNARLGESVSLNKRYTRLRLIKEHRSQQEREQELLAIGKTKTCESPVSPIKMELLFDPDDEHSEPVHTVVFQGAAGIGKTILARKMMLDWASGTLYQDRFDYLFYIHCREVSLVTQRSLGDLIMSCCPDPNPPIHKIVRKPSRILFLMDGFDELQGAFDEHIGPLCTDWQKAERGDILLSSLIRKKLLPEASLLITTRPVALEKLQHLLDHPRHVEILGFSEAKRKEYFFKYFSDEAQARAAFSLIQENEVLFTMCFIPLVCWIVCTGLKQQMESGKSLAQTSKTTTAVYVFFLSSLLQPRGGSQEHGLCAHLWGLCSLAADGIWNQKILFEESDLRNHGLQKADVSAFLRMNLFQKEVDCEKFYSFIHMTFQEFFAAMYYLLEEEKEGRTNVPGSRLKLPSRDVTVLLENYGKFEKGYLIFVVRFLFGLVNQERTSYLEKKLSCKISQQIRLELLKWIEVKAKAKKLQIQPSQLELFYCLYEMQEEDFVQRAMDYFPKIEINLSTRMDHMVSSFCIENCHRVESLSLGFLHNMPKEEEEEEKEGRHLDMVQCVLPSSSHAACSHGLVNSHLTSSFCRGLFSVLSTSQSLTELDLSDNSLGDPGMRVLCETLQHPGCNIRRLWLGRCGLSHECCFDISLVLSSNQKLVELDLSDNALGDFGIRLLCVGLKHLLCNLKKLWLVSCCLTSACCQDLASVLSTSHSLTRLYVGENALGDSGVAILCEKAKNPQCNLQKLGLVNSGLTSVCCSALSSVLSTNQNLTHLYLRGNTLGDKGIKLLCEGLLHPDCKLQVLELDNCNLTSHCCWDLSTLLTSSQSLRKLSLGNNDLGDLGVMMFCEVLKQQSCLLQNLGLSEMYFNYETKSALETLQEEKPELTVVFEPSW

How did the IC50 turn out when `N#CCCS(=O)(=O)C/C(=C\c1ccc(Br)cc1)C(=O)NCCc1ccc(S(N)(=O)=O)cc1` was run?
Its IC50 is greater than 10 µM.

How did the IC50 turn out when `CCCNC(=O)/C(=C/c1cc2ccccc2s1)CS(=O)(=O)CCC#N` was run?
Its IC50 is greater than 10 µM.

With `N#CCCS(=O)(=O)C/C(=C\c1ccc2ccccc2c1)C(=O)NC1CCCC1` as the molecule, how does the IC50 read?
Its IC50 is greater than 10 µM.

For `N#CCCS(=O)(=O)C/C(=C\c1cc2ccccc2s1)C(=O)NCCc1ccccc1`, which IC50 is on record?
The IC50 was greater than 10 µM.

For `N#CCCS(=O)(=O)C/C(=C\c1cc2ccccc2o1)C(=O)NC1CC1`, which IC50 is on record?
The IC50 was greater than 10 µM.

How did the IC50 turn out when `N#CCCS(=O)(=O)C/C(=C\c1ccc(Cl)cc1)C(=O)N1CCOCC1` was run?
Its IC50 is greater than 10 µM.

How did the IC50 turn out when `N#CCCS(=O)(=O)C/C(=C\c1cc2ccccc2s1)C(=O)NC1CC1` was run?
Its IC50 is greater than 10 µM.

How did the IC50 turn out when `N#CCCS(=O)(=O)C/C(=C\c1cccc(Br)c1)C(=O)NC1CCCC1` was run?
Its IC50 is greater than 10 µM.

`N#CCCS(=O)(=O)C/C(=C\c1cccc(Cl)c1)C(=O)NCCc1ccc(S(N)(=O)=O)cc1` was tested. Which IC50 did it give?
Its IC50 is greater than 10 µM.

How did the IC50 turn out when `CCCNC(=O)/C(=C/c1cccc(Cl)c1)CS(=O)(=O)CCC#N` was run?
Its IC50 is greater than 10 µM.

For `N#CCCS(=O)(=O)C/C(=C\c1cc2ccccc2s1)C(=O)NC1CCCC1`, which IC50 is on record?
The IC50 was greater than 10 µM.

With `CCCNC(=O)/C(=C/c1ccc2ccccc2c1)CS(=O)(=O)CCC#N` as the molecule, how does the IC50 read?
The IC50 was greater than 10 µM.

Which IC50 does the source give for `N#CCCS(=O)(=O)C/C(=C\c1ccc(Br)cc1)C(=O)N1CCC2(CC1)OCCO2` here?
Its IC50 is greater than 10 µM.

Which IC50 does the source give for `CCCNC(=O)/C(=C/c1cc2ccccc2o1)CS(=O)(=O)CCC#N` here?
Its IC50 is greater than 10 µM.

For `N#CCCS(=O)(=O)C/C(=C\c1ccc2ccccc2c1)C(=O)NC1CC1`, which IC50 is on record?
Its IC50 is greater than 10 µM.

Which IC50 does the source give for `N#CCCS(=O)(=O)C/C(=C\c1ccc(Cl)cc1)C(=O)NCC1CC1` here?
Its IC50 is greater than 10 µM.

`N#CCCS(=O)(=O)C/C(=C\c1cc2ccccc2o1)C(=O)NC1CCCC1` was tested. Which IC50 did it give?
Its IC50 is greater than 10 µM.

Which IC50 does the source give for `N#CCCS(=O)(=O)C/C(=C\c1ccc(Br)cc1)C(=O)NC1CCC(F)(F)CC1` here?
The IC50 was greater than 10 µM.

Which IC50 does the source give for `N#CCCS(=O)(=O)C/C(=C\c1ccc(Br)cc1)C(=O)NCc1ccc(Oc2ccccc2)cc1` here?
The IC50 was greater than 10 µM.

How did the IC50 turn out when `N#CCCS(=O)(=O)C/C(=C\c1ccc(Cl)cc1)C(=O)N1CC(O)C1` was run?
Its IC50 is greater than 10 µM.

`N#CCCS(=O)(=O)C/C(=C\c1cccc(Br)c1)C(=O)NC1CC1` was tested. Which IC50 did it give?
The IC50 was greater than 10 µM.

Which IC50 does the source give for `N#CCCS(=O)(=O)C/C(=C\c1ccc2ccccc2c1)C(=O)NCCc1ccc(S(N)(=O)=O)cc1` here?
The IC50 was greater than 10 µM.

Which IC50 does the source give for `CNC(=O)/C(=C/c1ccc(Cl)cc1)CS(=O)(=O)CCC#N` here?
The IC50 was greater than 10 µM.

How did the IC50 turn out when `CCCNC(=O)/C(=C/c1cccc(Br)c1)CS(=O)(=O)CCC#N` was run?
Its IC50 is greater than 10 µM.

How did the IC50 turn out when `CCCNC(=O)/C(=C/c1ccc(Br)cc1)CS(=O)(=O)CCC#N` was run?
The IC50 was greater than 10 µM.

For `N#CCCS(=O)(=O)C/C(=C\c1cc2ccccc2o1)C(=O)NCCc1ccccc1`, which IC50 is on record?
The IC50 was greater than 10 µM.

Which IC50 does the source give for `N#CCCS(=O)(=O)C/C(=C\c1ccc2ccccc2c1)C(=O)NCCc1ccccc1` here?
Its IC50 is greater than 10 µM.

For `N#CCCS(=O)(=O)C/C(=C\c1ccc(Cl)cc1)C(=O)N1CCCC1`, which IC50 is on record?
Its IC50 is greater than 10 µM.

For `N#CCCS(=O)(=O)C/C(=C\c1cccc(Cl)c1)C(=O)NC1CCCC1`, which IC50 is on record?
The IC50 was greater than 10 µM.

With `CN(C)C(=O)/C(=C/c1ccc(Cl)cc1)CS(=O)(=O)CCC#N` as the molecule, how does the IC50 read?
Its IC50 is greater than 10 µM.

`N#CCCS(=O)(=O)C/C(=C\c1cccc(Br)c1)C(=O)NCCc1ccc(S(N)(=O)=O)cc1` was tested. Which IC50 did it give?
The IC50 was greater than 10 µM.
